According to patent US12528786B2, “Plasma kallikrein inhibitors” (Merck Sharp & Dohme LLC, priority 2020, dated 2026):

target: T1, Human plasma kallikrein (Homo sapiens, UniProt P03952); assay: Kallikrein Assay (fluorogenic substrate hydrolysis, AFC release); assay type: biochemical; conditions: purified Human plasma kallikrein 0.5 nM; substrate Acetyl-K—P—R-AFC 100 mM; 50 mM HEPES pH 7.4
T1 construct: yields a heavy chain (371 amino acids) and a light chain (248 amino acids); purchased Enzyme Research Laboratories
T1 sequence (P03952 391-638 limits assumed): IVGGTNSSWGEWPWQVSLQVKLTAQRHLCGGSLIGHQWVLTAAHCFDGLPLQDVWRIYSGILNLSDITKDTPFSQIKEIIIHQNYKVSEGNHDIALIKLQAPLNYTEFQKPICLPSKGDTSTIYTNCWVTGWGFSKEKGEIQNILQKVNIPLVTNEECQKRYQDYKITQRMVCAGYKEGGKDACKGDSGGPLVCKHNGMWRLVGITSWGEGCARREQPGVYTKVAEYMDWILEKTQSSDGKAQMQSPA
T1 sequence (P03952 20-390 partner limits assumed): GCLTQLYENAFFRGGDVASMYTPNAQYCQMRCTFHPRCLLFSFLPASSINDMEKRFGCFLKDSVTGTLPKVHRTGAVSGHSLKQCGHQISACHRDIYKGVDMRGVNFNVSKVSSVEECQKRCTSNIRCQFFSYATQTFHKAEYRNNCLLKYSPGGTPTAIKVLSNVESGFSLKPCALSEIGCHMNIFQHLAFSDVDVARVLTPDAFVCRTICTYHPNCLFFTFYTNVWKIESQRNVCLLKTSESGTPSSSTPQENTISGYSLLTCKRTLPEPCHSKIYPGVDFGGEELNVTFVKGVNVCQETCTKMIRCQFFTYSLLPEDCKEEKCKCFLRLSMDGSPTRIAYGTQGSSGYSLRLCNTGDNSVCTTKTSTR
Outline: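 Purified human plasma kallikrein (0.5 nM final) with Acetyl-K-P-R-AFC substrate (final ≤0.2 Km) in 50 mM HEPES pH 7.4, 150 mM NaCl, 5 mM CaCl2, 0.1% PEG 8000, after enzyme–inhibitor equilibration; room temperature or 37° C. AFC fluorescence (405 Ex/510 Em nm) under linear conditions; IC50 by four-parameter fit, Ki via Cheng-Prusoff.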

IC50 | SMILES
0.2 nM | Cc1nc(C(C)n2cc(C(=O)N[C@H]3C[C@@](C)(c4cc(Cl)ccc4C#N)C3)nn2)cnc1N1C[C@H]2C[C@H]2C1=O (single isomer, unassigned) [Example 109, N-((cis)-3-(5-chloro-2-cyanophenyl)-3-methylcyclobutyl)-1-((R or S)-1-(6-methyl-5-((1R,5S)-2-oxo-3-azabicyclo[3.1.0]hexan-3-yl)pyrazin-2-yl)ethyl)-1H-1,2,3-triazole-4-carboxamide]
28 nM | N#Cc1ccc(Cl)cc1[C@H]1C[C@@H](NC(=O)c2cn([C@H](CO)c3ccc(N4C[C@H]5C[C@H]5C4=O)nc3)nn2)C1 (single isomer, unassigned) [Example 155]
0.7 nM | Cc1cc(N2C[C@H]3C[C@H]3C2=O)ncc1[C@@H](C)n1cc(C(=O)NC2CC(c3cc(Cl)ccc3C#N)C2)c(C(C)O)n1 (single isomer, unassigned) [Example 170]
102 nM | Cc1cc(N2C[C@H]3C[C@H]3C2=O)ncc1C(C)n1cc(C(=O)N[C@H]2C[C@@H](c3cc(F)ccc3C#N)C2)cn1 (single isomer, unassigned) [Example 35, N-((cis)-3-(2-cyano-5-fluorophenyl)cyclobutyl)-1-((S or R)-1-(4-methyl-6-((1R,5S)-2-oxo-3-azabicyclo[3.1.0]hexan-3-yl)pyridin-3-yl)ethyl)-1H-pyrazole-4-carboxamide]
3.2 nM | COc1cc(C(C)n2cc(C(=O)N[C@H]3C[C@@H](c4cc(Cl)ccc4C#N)C3)nn2)cnc1N1C[C@H]2C[C@H]2C1=O (single isomer, unassigned) [Example 102, N-((cis)-3-(5-chloro-2-cyanophenyl)cyclobutyl)-1-((S or R)-1-(5-methoxy-6-((1R,5S)-2-oxo-3-azabicyclo[3.1.0]hexan-3-yl)pyridin-3-yl)ethyl)-1H-1,2,3-triazole-4-carboxamide]
8.1 nM | C[C@H](c1cnc(N2C[C@H]3C[C@H]3C2=O)nc1)n1cc(C(=O)N[C@H]2C[C@@H](c3cc(Cl)ccc3C#N)C2)nn1 (single isomer, unassigned) [Example 77]
6.7 nM | COc1c(N2C[C@H]3C[C@H]3C2=O)ncc(C(C)n2cc(C(=O)N[C@H]3C[C@@H](c4cc(Cl)ccc4C#N)C3)nn2)c1C (single isomer, unassigned) [Example 112, N-((cis)-3-(5-chloro-2-cyanophenyl)cyclobutyl)-1-((S or R)-1-(5-methoxy-4-methyl-6-((1R,5S)-2-oxo-3-azabicyclo[3.1.0]hexan-3-yl)pyridin-3-yl)ethyl)-1H-1,2,3-triazole-4-carboxamide]
0.3 nM | Cc1c(C(C)n2cc(C(=O)N[C@H]3C[C@@H](c4cc(Cl)ccc4C#N)C3)cn2)cnc(N2C[C@H]3C[C@H]3C2=O)c1C (single isomer, unassigned) [Example 39, N-((cis)-3-(5-chloro-2-cyanophenyl)cyclobutyl)-1-((R or S)-1-(4,5-dimethyl-6-((1R,5S)-2-oxo-3-azabicyclo[3.1.0]hexan-3-yl)pyridin-3-yl)ethyl)-1H-pyrazole-4-carboxamide]
6.7 nM | CC(c1cnc(N2C[C@H]3C[C@H]3C2=O)nc1)n1cc(C(=O)N[C@H]2C[C@@H](c3cc(Cl)ccc3C#N)C2)cn1 (single isomer, unassigned) [Example 3, N-((cis)-3-(5-chloro-2-cyanophenyl)cyclobutyl)-1-((R or S)-1-(2-((1R,5S)-2-oxo-3-azabicyclo[3.1.0]hexan-3-yl)pyrimidin-5-yl)ethyl)-1H-pyrazole-4-carboxamide]
0.6 nM | Cc1cc(N2C[C@H]3C[C@H]3C2=O)ncc1C(C)n1cc(C(=O)N[C@H]2C[C@@H](c3cc(Cl)ccc3C#N)C2)nn1 (single isomer, unassigned) [Example 59, N-((cis)-3-(5-chloro-2-cyanophenyl)cyclobutyl)-1-((R or S)-1-(4-methyl-6-((1R,5S)-2-oxo-3-azabicyclo[3.1.0]hexan-3-yl)pyridin-3-yl)ethyl)-1H-1,2,3-triazole-4-carboxamide]
